Read-outs that look alike come from different tables or passages of the source.
Tests used:
Recombinant CD38 = assay: Hydrolysis by recombinant CD38
Method: ADP-ribosyl cyclases from lower and higher Metazoa were incubated in the presence of 0.1 mM cADPR and 1 mM adenine at pH 7.4 in 10 mM Tris-HCl (A, B and C) or in PBS-glucose (D) at 22° C. (A and B) or at 37° C. (C and D) for 4 hours. Aliquots of the various incubations were deproteinised with TCA (trichloroacetic acid) and subjected to HPLC (analytical phosphate). Chromatograms representative of each incubation are shown. A. A. polypoides; B. A. californica; C. Human CD38 (recombinant); D. Human HeLa cells transfected with sense and antisense human CD38 (dashed chromatogram).
In table 1, the absolute values of the peak-forming and -hydrolysing activities are compared with the cADPR-forming and -hydrolysing activities for each enzyme. The activities are expressed as nmol/min/mg.

[1] = system: CFC (colony forming cells); assay: CFC colony growth from cord blood mononuclear cells in semi-solid medium; format: cell-based, human; details: for IC50: read-out: IC50, inhibition of CFC colony growth; for reduction of toxicity by digestion with NPP and CIP: FIG. 4, CFC growth
Method: Mononuclear cells isolated from cord blood were incubated in the presence of various concentrations of P18 (▴), P24 (▪) and the iso-adenosine units resulting from the enzymatic digestion of P18 (Δ) and P24 (□). After 24 hours, aliquots of cells (1-2×10^4) were seeded in semi-solid medium to allow for colony growth. Results are expressed as percentage of inhibition of colony growth compared with controls, represented by cells incubated with the same dilution of chromatographic buffer as present in the HPLC-purified compounds. The IC50 values were obtained from the logarithmic regression curves (R≧0.97). The results shown in this figure are the mean from at least three different experiments.
Mononuclear cells were isolated from cord blood (CB MNC) by a density gradient, washed by centrifugation and resuspended in complete medium (Mosmann, T. (1983) J. Immunol. Methods 65, 55-63). Cells (10^6/ml) were incubated for 24 hours in complete medium in the presence of different dinucleotides at concentrations comprised between 20 and 0.4 μM. Then, aliquots of cells (1-2×10^4) were seeded in semi-solid medium, supplemented with haemopoietic growth factors (Methocult, Stem Cell Technologies, Vancouver, BC), in order to allow colonies to develop. After 2 weeks in culture, the colonies which were grown were microscopically identified according to standard criteria (CFU-E, CFU-GM and CFU-GEM) and counted: each colony identifies a colony forming cell (CFC).

HCT-8 = assay: MTT reduction proliferation assay, HCT-8; format: cell-based, human; details: HCT-8 colon carcinoma, 24 hours
Method: The effect of P18 and P24 on the proliferation of several cell lines was determined by the MTT reduction assay (Mosmann, T. (1983) J. Immunol. Methods 65, 55-63). […] After 24 hours, 10 μl of a 5 mg/ml solution of MTT were added to each well and the plates incubated for a further 2 hours. The supernatant was then removed from each well and the blue crystals produced by the reduction of the dye were dissolved in DMSO (200 μl/well). The optical absorbance at 570 nm was determined with a BioRad microplate reader.
In these experiments, cells were seeded onto 96 well plates (3×10^4 cells per well) and incubated in the presence of increasing concentrations of P18 or P24. After 24 hours, the percentage of viable cells was evaluated by spectrophotometric measurement of the concentration of reduced MTT (see Materials and Methods). The means of at least three separate experiments are shown (s.d.≦20% of the mean value). The production of P18 and P24 by human CD38 cyclase, with inhibitory effects on colony growth, together with cADPR, with stimulatory effect, may be at least partly responsible for the colony growth inhibition observed during long term culture of human HP cells on CD38^+ stroma. […]

[2] = Storage stability of purified lyophilised peaks; details: stored at −20° C., several months (approx. 6)
Method: The cyclase purified from A. polypoides was used for the production of the dinucleotides for structural and functional studies. In a total volume of 0.4 ml of 10 mM Tris-HCl, pH 7.0, 0.05 mg of purified cyclase were incubated with 1 mM cADPR (or NAD^+), 5 mM adenine and 2 mM MgCl2 at room temperature. cADPR or NAD^+ was added to the reaction mixture every 6 hours, while every 24 hours fresh cyclase was added and an aliquot of the incubation was deproteinised with TCA (5% final concentration) and analysed by HPLC (analytical phosphate) to monitor dinucleotide production. After 3-5 days, the resulting incubation was extracted with TCA and 250 μl aliquots were injected into an HPLC column (preparative phosphate). The P18, P24 and P31 peaks were collected, lyophilised in a RotoVapor, re-dissolved in deionised water and injected into an HPLC column (preparative formate). […] The purified peaks produced by Axinella cyclase were used in in vitro experiments on the various cell types described hereinafter, for the enzymatic production of mononucleotides and nucleosides (see below), as internal and external HPLC standards to identify the dinucleotides in cell extracts, and for detecting the absorption spectra stored in the liquid chromatograph library as standards.

CD38^− cells = assay: Uptake of extracellularly added dinucleotides in CD38- cells; format: in vitro ADME, human; details: 15 μM added extracellularly
[3] = 24 hours incubation of cord blood mononuclear cells, colonies counted after 2 weeks

SMILES | resistance to CD38 catalysed hydrolysis (Recombinant CD38; recombinant CD38) | hydrolysis activity (Recombinant CD38; recombinant CD38, P18 and P24 to adenine and ADPR) | IC50 ([1]; 2 hours of incubation) | IC50 [1, 3] | reduction of toxicity by digestion with NPP and CIP [1] | IC50 (HCT-8) | degradation on storage [2] | rate of increase of intracellular concentration (uptake) (CD38^− cells) | hydrolysis activity (Recombinant CD38)
Nc1ncnc2c1ncn2[C@@H]1O[C@H](COP(=O)(O)OP(=O)(O)OC[C@H]2O[C@@H](n3cnc4ncnc-4c3N)[C@H](O)[C@@H]2O)[C@@H](O)[C@H]1O [P18] | resistance | 6.0^1 nmol/min/mg | 30 µM | 1 µM | 40 fold | 65 µM | no dinucleotide degradation was observed | approx. 2.4 pmol/min/mg | 
Nc1ncn([C@@H]2O[C@H](COP(=O)(O)OP(=O)(O)OC[C@H]3O[C@@H](n4cnc5c(N)ncnc54)[C@H](O)[C@@H]3O)[C@@H](O)[C@H]2O)c2ncnc1-2 [P24] |  |  |  | 0.18 µM | 30 fold | 27 µM | no dinucleotide degradation was observed | approx. 2.4 pmol/min/mg | 0.25^1 nmol/min/mg
